These results are taken from publication PMC12498288 (Frontiers in Immunology, 2025).

The series is described as follows: LDH cytotoxicity assay, CC50 determination on Calu-3 cells. The series is classed as cell-based. To be noted: human. The procedure:
In short, 2x10^4 Calu-3 cells were seeded per well in 96-well cell culture plates in IMDM medium containing 10% FBS, 100 units/mL penicillin, and 100 µg/mL streptomycin two days before treatment. Prior to the treatment, the medium was removed, and the cells were washed once with PBS. The cells were subsequently treated in quadruplicates with 600, 500, 400, 350, 300, 250, 200, 150, or 100 µM zapnometinib dissolved in DMSO and diluted in IMDM medium containing 5% FBS, 100 units/mL penicillin, and 100 µg/mL streptomycin. The DMSO concentration upon treatment was 1%. A DMSO control was supplied with 1% DMSO (without zapnometinib). An untreated control (spontaneous LDH release control) was supplied with cell culture medium (5% FBS). Viability assessment with LDH assay was performed after 24 and 48 h treatment. Therefore, 10 µL 10X Lysis Buffer were added to one well of each quadruplicate treatment set (maximum LDH release control) and the plates were incubated 45 min at 37 °C and 5% CO2. […] After 30 min incubation in the dark at RT, 50 µL stop solution were added to the wells and the absorbance was read at 490 nm and 680 nm. The absorbance measured at 680 nm was subtracted from the absorbance at 490 nm and the %Viability was calculated using the following formula: […]

SMILES strings stand for the structures. Several values for one entry are separate records, joined by “and”; a condition that tells them apart may be missing. Equal values may be shown once.

Usually CC50 stands for the concentration that lowers cell viability or growth by half. A lower CC50 goes with harm at low concentration. For `O=C(O)c1ccc(F)c(F)c1Nc1ccc(I)cc1Cl` [zapnometinib], where the note is “24 h treatment”, the half-maximal cytotoxic concentration (CC50) at 24 h is 532 µM and 218 µg/mL. Besides, where the note is “48 h treatment”, the half-maximal cytotoxic concentration (CC50) at 48 h is 471 µM and 193 µg/mL.
